Measurements from PubChem BioAssay AID463149 (The Scripps Research Institute Molecular Screening Center, 2010).

Columns and labels:
Assay in all cases: PME-1 inhibition and serine hydrolase selectivity by ABPP – cell lysate, gel-based competitive ABPP, fluorescence, powder samples, selectivity assay, late-stage follow-up (AID 463149);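 further: 0% = DMSO-treated band intensity and 100% = blank gel background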
[1] = biological target: Acylamino-acid-releasing enzyme (Homo sapiens) (UniProt P13798); conditions: HeLa soluble proteome, FP-Rh fluorescence, measured here: Anti-Target APEH, stronger effect = higher value
Anti-Target ABHD10 = conditions: HeLa soluble proteome, FP-Rh fluorescence, stronger effect = higher value
Anti-Target CES = conditions: HeLa soluble proteome, FP-Rh fluorescence, measured here: Anti-Target CES, stronger effect = higher value
Anti-Target PREP = conditions: HeLa soluble proteome, FP-Rh fluorescence, measured here: Anti-Target PREP, stronger effect = higher value
[2] = biological target: Fatty acid synthase (Homo sapiens) (UniProt P49327); conditions: HeLa soluble proteome, FP-Rh fluorescence, measured here: Anti-Target FAS, stronger effect = higher value
[3] = biological target: Protein phosphatase methylesterase 1 (Homo sapiens) (UniProt Q9Y570); conditions: HeLa soluble proteome, FP-Rh fluorescence, stronger effect = higher value
[4] = measured here: Anti-Target ABHD10, at 1 µM
[5] = measured here: Anti-Target ABHD10, at 20 µM

Sequence of Protein phosphatase methylesterase 1 (Homo sapiens) (Q9Y570 whole entry, looked up): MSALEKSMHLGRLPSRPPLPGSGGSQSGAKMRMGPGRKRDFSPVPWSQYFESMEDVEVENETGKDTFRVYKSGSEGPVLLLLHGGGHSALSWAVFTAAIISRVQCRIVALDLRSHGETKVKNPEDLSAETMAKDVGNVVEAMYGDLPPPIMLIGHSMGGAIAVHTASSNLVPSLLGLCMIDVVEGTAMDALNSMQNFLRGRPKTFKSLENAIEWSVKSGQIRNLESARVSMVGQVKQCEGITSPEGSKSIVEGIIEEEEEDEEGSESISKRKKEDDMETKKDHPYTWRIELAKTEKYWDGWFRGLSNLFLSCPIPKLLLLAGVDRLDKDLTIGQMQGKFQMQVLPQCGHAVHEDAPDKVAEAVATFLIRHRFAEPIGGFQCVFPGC
Sequence of Fatty acid synthase (Homo sapiens) (P49327 whole entry, looked up): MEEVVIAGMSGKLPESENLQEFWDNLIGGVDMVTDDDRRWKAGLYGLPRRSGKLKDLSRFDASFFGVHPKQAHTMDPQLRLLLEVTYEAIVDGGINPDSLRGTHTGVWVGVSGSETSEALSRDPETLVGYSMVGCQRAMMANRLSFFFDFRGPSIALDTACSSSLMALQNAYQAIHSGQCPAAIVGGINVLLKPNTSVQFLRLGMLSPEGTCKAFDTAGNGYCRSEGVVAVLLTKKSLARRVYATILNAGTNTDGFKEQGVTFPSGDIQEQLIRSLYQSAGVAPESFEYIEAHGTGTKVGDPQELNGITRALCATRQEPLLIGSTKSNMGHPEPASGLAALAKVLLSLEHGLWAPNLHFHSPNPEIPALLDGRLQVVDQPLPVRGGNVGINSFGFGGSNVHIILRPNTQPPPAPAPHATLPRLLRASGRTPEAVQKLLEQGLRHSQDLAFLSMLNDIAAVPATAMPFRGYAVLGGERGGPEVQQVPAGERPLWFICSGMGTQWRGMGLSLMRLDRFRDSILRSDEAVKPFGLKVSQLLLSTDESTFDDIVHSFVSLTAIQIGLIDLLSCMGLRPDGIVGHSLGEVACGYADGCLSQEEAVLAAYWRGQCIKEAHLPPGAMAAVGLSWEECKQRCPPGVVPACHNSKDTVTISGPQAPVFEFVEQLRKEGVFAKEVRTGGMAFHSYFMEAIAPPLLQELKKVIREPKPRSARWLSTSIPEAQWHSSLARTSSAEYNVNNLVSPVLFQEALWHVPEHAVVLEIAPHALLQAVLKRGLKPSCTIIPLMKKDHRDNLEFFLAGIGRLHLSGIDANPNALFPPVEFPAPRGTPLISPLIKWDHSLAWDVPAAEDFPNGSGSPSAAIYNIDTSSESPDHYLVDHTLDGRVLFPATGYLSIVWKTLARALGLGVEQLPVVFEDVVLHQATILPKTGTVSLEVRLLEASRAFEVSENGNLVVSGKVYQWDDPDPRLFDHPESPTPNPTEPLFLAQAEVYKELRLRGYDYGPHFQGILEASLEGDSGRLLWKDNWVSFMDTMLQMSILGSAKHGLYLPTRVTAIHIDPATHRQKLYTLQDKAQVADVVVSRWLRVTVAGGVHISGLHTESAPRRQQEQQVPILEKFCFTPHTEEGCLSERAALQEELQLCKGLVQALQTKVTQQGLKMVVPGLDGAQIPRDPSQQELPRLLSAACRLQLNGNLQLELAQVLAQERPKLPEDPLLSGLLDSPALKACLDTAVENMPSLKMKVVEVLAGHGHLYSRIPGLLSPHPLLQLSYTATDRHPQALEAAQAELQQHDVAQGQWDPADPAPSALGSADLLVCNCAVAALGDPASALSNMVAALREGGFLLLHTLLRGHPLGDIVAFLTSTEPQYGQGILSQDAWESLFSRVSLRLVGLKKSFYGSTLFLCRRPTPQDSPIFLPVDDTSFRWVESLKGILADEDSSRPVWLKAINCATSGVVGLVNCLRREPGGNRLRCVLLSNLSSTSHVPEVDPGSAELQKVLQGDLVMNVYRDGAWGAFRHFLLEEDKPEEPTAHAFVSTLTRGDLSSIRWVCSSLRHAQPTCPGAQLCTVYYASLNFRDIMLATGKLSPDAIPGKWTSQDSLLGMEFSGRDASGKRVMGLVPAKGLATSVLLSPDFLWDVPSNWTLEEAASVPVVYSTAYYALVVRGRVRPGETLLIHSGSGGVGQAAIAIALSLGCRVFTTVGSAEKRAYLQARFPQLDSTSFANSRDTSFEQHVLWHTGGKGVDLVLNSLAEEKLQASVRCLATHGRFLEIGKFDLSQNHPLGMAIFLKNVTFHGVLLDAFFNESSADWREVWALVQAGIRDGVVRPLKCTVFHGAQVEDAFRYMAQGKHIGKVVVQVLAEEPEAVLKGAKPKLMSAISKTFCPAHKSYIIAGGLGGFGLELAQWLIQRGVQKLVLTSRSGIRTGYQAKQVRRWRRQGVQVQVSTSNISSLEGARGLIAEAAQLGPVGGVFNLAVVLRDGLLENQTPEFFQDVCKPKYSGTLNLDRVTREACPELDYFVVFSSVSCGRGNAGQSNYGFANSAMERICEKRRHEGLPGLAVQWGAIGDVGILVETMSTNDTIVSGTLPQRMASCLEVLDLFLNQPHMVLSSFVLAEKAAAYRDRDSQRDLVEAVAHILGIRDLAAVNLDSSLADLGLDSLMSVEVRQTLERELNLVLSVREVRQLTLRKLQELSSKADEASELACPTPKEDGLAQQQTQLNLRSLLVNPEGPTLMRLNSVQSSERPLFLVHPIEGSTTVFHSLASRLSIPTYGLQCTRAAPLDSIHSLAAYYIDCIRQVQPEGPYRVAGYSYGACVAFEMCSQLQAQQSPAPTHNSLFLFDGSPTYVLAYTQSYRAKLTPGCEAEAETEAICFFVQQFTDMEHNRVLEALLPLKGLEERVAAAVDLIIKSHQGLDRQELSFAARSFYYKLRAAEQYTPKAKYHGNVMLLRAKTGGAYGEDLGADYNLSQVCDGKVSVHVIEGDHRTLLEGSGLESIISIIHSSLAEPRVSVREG
Sequence of Acylamino-acid-releasing enzyme (Homo sapiens) (P13798 whole entry, looked up): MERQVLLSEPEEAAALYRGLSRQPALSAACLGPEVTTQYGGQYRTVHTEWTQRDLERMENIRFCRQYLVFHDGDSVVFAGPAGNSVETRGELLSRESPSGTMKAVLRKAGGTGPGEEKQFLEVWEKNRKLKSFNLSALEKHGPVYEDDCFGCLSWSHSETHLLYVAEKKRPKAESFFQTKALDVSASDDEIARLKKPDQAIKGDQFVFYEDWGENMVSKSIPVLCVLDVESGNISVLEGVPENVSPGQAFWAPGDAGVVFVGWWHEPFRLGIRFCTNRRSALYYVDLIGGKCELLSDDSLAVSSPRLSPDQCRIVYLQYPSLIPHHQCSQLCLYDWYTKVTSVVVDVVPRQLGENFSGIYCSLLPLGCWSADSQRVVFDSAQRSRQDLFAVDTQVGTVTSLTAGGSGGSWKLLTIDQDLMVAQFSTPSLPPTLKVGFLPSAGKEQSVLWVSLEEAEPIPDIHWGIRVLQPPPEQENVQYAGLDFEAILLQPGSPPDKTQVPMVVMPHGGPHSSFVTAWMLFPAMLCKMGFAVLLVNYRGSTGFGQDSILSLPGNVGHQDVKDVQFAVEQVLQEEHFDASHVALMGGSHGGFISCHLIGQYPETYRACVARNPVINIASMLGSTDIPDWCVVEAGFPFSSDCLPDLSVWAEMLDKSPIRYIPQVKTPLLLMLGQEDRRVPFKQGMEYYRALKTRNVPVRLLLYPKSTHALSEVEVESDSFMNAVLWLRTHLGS

Row | Structure (SMILES) | inhibition ([1]; at 1 µM) [%] | inhibition ([1]; at 20 µM) [%] | inhibition (Anti-Target ABHD10; [4]) [%] | inhibition (Anti-Target ABHD10; [5]) [%] | inhibition (Anti-Target CES; at 1 µM) [%] | inhibition (Anti-Target CES; at 20 µM) [%] | inhibition (Anti-Target PREP; at 1 µM) [%] | inhibition (Anti-Target PREP; at 20 µM) [%] | inhibition ([2]; at 1 µM) [%] | inhibition ([2]; at 20 µM) [%] | inhibition ([3]; PME-1, inhibition, at 1 µM) [%] | inhibition ([3]; PME-1, inhibition, at 20 µM) [%] | inhibition ([3]; PME-1, at 0.1 µM) [%]
1 | COC(=O)N1C(=O)[C@](c2ccccc2)(C(C)C)N1C(=O)OC | 0 | 0 | 0 | 0 | 0 | 0 | 0 | 0 | 0 | 0 | 100 | 100 | –
2 | COC(=O)N1C(=O)[C@](CC(C)C)(c2ccccc2)N1C(=O)OC | 0 | > 50 | 0 | 0 | > 50 | > 50 | 0 | 0 | > 50 | > 50 | 100 | 100 | 100
3 | COC(=O)N1C(=O)[C@@](c2ccccc2)(C(C)C)N1C(=O)OC | 0 | 0 | 0 | 0 | 0 | > 50 | 0 | 0 | 0 | 0 | 0 | 100 | –
4 | COC(=O)N1C(=O)[C@](c2ccccc2)(C2CCCCC2)N1C(=O)OC | 0 | 0 | 0 | 0 | 0 | 0 | 0 | 0 | 0 | > 50 | 100 | 100 | 90
5 | CCOC(=O)N1C(=O)[C@](CC)(c2ccccc2)N1C(=O)OCC | 0 | 0 | 0 | 0 | > 50 | > 50 | 0 | 0 | 0 | > 50 | 0 | 100 | –
6 | CCOC(=O)N1C(=O)[C@@](CC)(c2ccccc2)N1C(=O)OCC | 0 | 0 | 0 | 50 | 0 | > 50 | 0 | > 50 | 0 | 0 | 0 | 0 | –
7 | CC[C@@]1(c2ccccc2)C(=O)N(C(=O)OC)N1C(=O)OC | 0 | 0 | 0 | 50 | 0 | > 50 | 0 | > 50 | 0 | 0 | 0 | 100 | –
8 | CC[C@]1(c2cccc(C)c2)C(=O)N(C(=O)OC)N1C(=O)OC | 0 | 0 | 0 | 0 | > 50 | > 50 | 0 | 0 | 0 | > 50 | 50 | 100 | –
9 | COC(=O)N1C(=O)[C@](c2ccsc2)(C(C)C)N1C(=O)OC | 0 | 0 | 0 | 0 | 0 | 0 | 0 | 0 | 0 | 0 | 50 | 100 | –
10 | CC[C@@]1(c2cccc(C)c2)C(=O)N(C(=O)OC)N1C(=O)OC | 0 | 0 | 0 | 50 | > 50 | > 50 | 0 | > 50 | 0 | > 50 | 0 | 100 | –
11 | COC(=O)N1C(=O)[C@@](Cc2ccccc2)(c2ccccc2)N1C(=O)OC | 0 | 0 | 0 | 50 | > 50 | > 50 | 0 | 0 | 0 | 0 | 0 | 50 | –
